Measured values taken from patent US20150374680A1, “POCHOXIME CONJUGATES USEFUL FOR THE TREATMENT OF HSP90 RELATED PATHOLOGIES” (UNIVERSITE DE STRASBOURG, priority 2010, published 2015).
Read-outs that look alike come from different tables or passages of the source.

Columns and labels:
[1] = target: T1, human HSP90α (Homo sapiens, UniProt P07900); test: biochemical; assay type: binding
T1 construct: purchased Stressgen SPP-776F

[2] = tested on: Her-2 in SkBr3 cells; test: Her-2 depletion in SkBr3 cells (pharmacodynamic marker of cellular efficacy); assay type: cell-based; details: Homo sapiens, SK-BR-3; SkBr3 cells treated with the inhibitor overnight; read-out: PD (μM), pharmacodynamic EC50, Her-2 depletion
Description: FIG. 2. Cellular efficacy of pochoximes A1B5C1D1 (IC50). Depletion of Her-2 in SkBr3 cells were treated treated with the inhibitor for 18 h. […]

[3] = competition assay, read-out: Measure KD against human HSP90α

SMILES | Kd ([1]; Measure KD against human HSP90α (nM)) [nM] | Kd [1, 3] [nM] | EC50 [1] [nM] | EC50 [2] [µM]
CC1CC=CC(NC(=O)CSC2OC(CO)C(O)C(O)C2O)CC=CC(=NOCC(=O)N2CCCCC2)Cc2cc(O)cc(O)c2C(=O)O1 (stereo not shown) [As-14(6-R)] | 90 | – | – | –
CC(=O)N[C@H]1/C=C/C[C@@H](C)OC(=O)c2c(O)cc(O)cc2CC(=NOCC(=O)N2CCCCC2)/C=C/C1 [As-15(6-R)] | – | 343 | – | –
CCN(CC)C(=O)CON=C1C=CCCC=CCC(C)OC(=O)c2c(O)cc(O)cc2C1 (stereo not shown) [Compound A1B1C1D18] | – | – | 540 | –
CCCC1CC=CCCC=CC(=NOCC(=O)N2CCCCC2)Cc2cc(O)cc(O)c2C(=O)O1 (stereo not shown) [Compound A1B1C2D1] | – | – | 588 | > 10
CC1CCCCN1C(=O)CON=C1C=CCCC=CCCOC(=O)c2c(O)cc(O)cc2C1 (stereo not shown) [Compound A1B1C4D2] | – | – | 886 | –
CCC1CCCCN1C(=O)CON=C1C=CCCC=CCCOC(=O)c2c(O)cc(O)cc2C1 (stereo not shown) [Compound A1B1C4D5] | – | – | 243 | < 1
CC1CCCC(C)N1C(=O)CON=C1C=CCCC=CCCOC(=O)c2c(O)cc(O)cc2C1 (stereo not shown) [Compound A1B1C4D6] | – | – | 238 | < 5
O=C1OCCC=CCCC=CC(=NOCC(=O)N2CCC(c3ccccc3)CC2)Cc2cc(O)cc(O)c21 [Compound A1B1C4D7] | – | – | 2240 | > 10
O=C1OCCC=CCCC=CC(=NOCC(=O)N2CCC(Cc3ccccc3)CC2)Cc2cc(O)cc(O)c21 [Compound A1B1C4D8] | – | – | 5760 | > 10
O=C1OCCC=CCCC=CC(=NOCC(=O)N2CCOCC2)Cc2cc(O)cc(O)c21 [Compound A1B1C4D10] | – | – | 124 | ≤ 0.5
O=C1OCCC=CCCC=CC(=NOCC(=O)N2CCNCC2)Cc2cc(O)cc(O)c21 [Compound A1B1C4D12] | – | – | 640 | ≤ 5
CN1CCN(C(=O)CON=C2C=CCCC=CCCOC(=O)c3c(O)cc(O)cc3C2)CC1 [Compound A1B1C4D13] | – | – | > 10000 | –
CC1CN(C(=O)CON=C2C=CCCC=CCCOC(=O)c3c(O)cc(O)cc3C2)CC(C)O1 (stereo not shown) [Compound A1B1C4D14] | – | – | 337 | ≤ 5
O=C1OCCC=CCCC=CC(=NOCC(=O)N2CC=CC2)Cc2cc(O)cc(O)c21 [Compound A1B1C4D15] | – | – | 128 | ≤ 1
O=C1OCCC=CCCC=CC(=NOCC(=O)N2CCCC2)Cc2cc(O)cc(O)c21 [Compound A1B1C4D17] | – | – | 219 | ≤ 0.5
CCN(CC)C(=O)CON=C1C=CCCC=CCCOC(=O)c2c(O)cc(O)cc2C1 [Compound A1B1C4D18] | – | – | 196 | ≤ 1
CC(C)N(C(=O)CON=C1C=CCCC=CCCOC(=O)c2c(O)cc(O)cc2C1)C(C)C [Compound A1B1C4D20] | – | – | 162 | ≤ 1
O=C1OCCC=CCCC=CC(=NOCC(=O)N(Cc2ccccc2)Cc2ccccc2)Cc2cc(O)cc(O)c21 [Compound A1B1C4D21] | – | – | 2990 | > 10
O=C1OCCC=CCCC=CC(=NOCC(=O)N2CCCCCC2)Cc2cc(O)cc(O)c21 [Compound A1B1C4D23] | – | – | 140 | –
O=C(CON=C1C=CCCC=CCCOC(=O)c2c(O)cc(O)cc2C1)NC1CCCCC1 [Compound A1B1C4D24] | – | – | 155 | ≤ 5

SMILES | Kd ([1]; Measure KD against human HSP90α (nM)) [nM] | Kd [1, 3] [nM] | EC50 [1] [nM] | EC50 [2] [µM]
COC(=O)CON=C1C=CCCC=CCCOC(=O)c2c(O)cc(O)cc2C1 [Compound A1B1C4D26] | – | – | 372 | ≤ 10
CCN(CC)C(=O)CON=C1C=C(C)CCC=CCC(C)OC(=O)c2c(O)cc(O)cc2C1 (stereo not shown) [Compound A1B3C1D18] | – | – | 200 | ≤ 1
CCCC1CC=CCCC(C)=CC(=NOCC(=O)N2CCCCC2)Cc2cc(O)cc(O)c2C(=O)O1 (stereo not shown) [Compound A1B3C2D1] | – | – | 196 | ≤ 1
CCCC1CC=CCCC(C)=CC(=NOCC(=O)N(CC)CC)Cc2cc(O)cc(O)c2C(=O)O1 (stereo not shown) [Compound A1B3C2D18] | – | – | 4660 | > 10
CCCC1CC=CC(C)CC=CC(=NOCC(=O)N2CCCCC2)Cc2cc(O)cc(O)c2C(=O)O1 (stereo not shown) [Compound A1B4C2D1] | – | – | 811 | –
O=C1NCCC=CCCC=CC(=NOCC(=O)N2CCCCC2)Cc2c(Cl)c(O)cc(O)c21 [Compound A2B1C3D1] | – | – | 198 | ≤ 1
C=CC1=CCCC=CC(=NOCC(=O)N2CCCCC2)Cc2c(Cl)c(O)cc(O)c2C(=O)OCC1 [Compound A2B1C8D1] | – | – | 432 | ≤ 1
CCCC1CC=CCCC(C)=CC(=NOCC(=O)N(CC)CC)Cc2c(Cl)c(O)cc(O)c2C(=O)O1 (stereo not shown) [Compound A2B3C2D18] | – | – | 900 | > 10
CC1C=CCC(C)OC(=O)c2c(O)cc(O)c(Cl)c2CC(=NOCC(=O)N2CCCCC2)C=CC1 (stereo not shown) [Compound A2B4C1D1] | – | – | 154 | ≤ 1
CCCC1CC=CC(C)CC=CC(=NOCC(=O)N2CCCCC2)Cc2c(Cl)c(O)cc(O)c2C(=O)O1 (stereo not shown) [Compound A2B4C2D1] | – | – | 1750 | ≤ 10
CC1C=CCCOC(=O)c2c(O)cc(O)c(Cl)c2CC(=NOCC(=O)N2CCCCC2)C=CC1 (stereo not shown) [Compound A2B4C4D1] | – | – | 170 | ≤ 5
CC1C=CCCCOC(=O)c2c(O)cc(O)c(Cl)c2CC(=NOCC(=O)N2CCCCC2)C=CC1 (stereo not shown) [Compound A2B4C5D1] | – | – | 1720 | > 10
C[C@@H]1C/C=C/[C@H](N)C/C=C/C(=NOCC(=O)N2CCCCC2)Cc2cc(O)cc(O)c2C(=O)O1 [aminopochoxime E] | – | 229 | – | –
CC1CC=CC(N)CC=CC(=NOCC(=O)N2CCCCC2)Cc2cc(O)cc(O)c2C(=O)O1 (stereo not drawn) [epi-aminopochoxime E] | – | 34 | – | –
C[C@@H]1C/C=C/[C@@H](O)C/C=C/C(=NOCC(=O)N2CCCCC2)Cc2c(Cl)c(O)cc(O)c2C(=O)O1 [epi-pochoxime E] | – | 38 | – | –
C[C@@H]1C/C=C/[C@@H](O)C/C=C/C(=NOCC(=O)N2CCCCC2)Cc2cc(O)cc(O)c2C(=O)O1 [epi-pochoxime F] | – | 14 | – | –
CC1CC=CCCC=CC(=NOCC(=O)N2CCCCC2)Cc2c(Cl)c(O)cc(O)c2C(=O)O1 (stereo not shown) [pochoxime D] | – | 22 | – | –
C[C@@H]1C/C=C/[C@H](O)C/C=C/C(=NOCC(=O)N2CCCCC2)Cc2c(Cl)c(O)cc(O)c2C(=O)O1 [pochoxime E] | – | 34 | – | –
C[C@@H]1C/C=C/[C@H](O)C/C=C/C(=NOCC(=O)N2CCCCC2)Cc2cc(O)cc(O)c2C(=O)O1 [pochoxime F] | – | 22 | – | –

The remaining compounds from weak to strong by EC50 [1], led by results:

Kd ([1]; Measure KD against human HSP90α (nM)) [nM] | Kd [1, 3] [nM] | EC50 [1] [nM] | EC50 [2] [µM] | SMILES
– | – | 119 | ≤ 1 | CC1C=CC(C)N1C(=O)CON=C1C=CCCC=CCCOC(=O)c2c(O)cc(O)cc2C1 (stereo not shown) [Compound A1B1C4D16]
– | – | 116 | ≤ 1 | CCCN(CCC)C(=O)CON=C1C=CCCC=CCCOC(=O)c2c(O)cc(O)cc2C1 [Compound A1B1C4D25]
– | – | 96 | ≤ 5 | CCCC1CC=CCCC=CC(=NOCC(=O)N2CCCCC2)Cc2c(Cl)c(O)cc(O)c2C(=O)O1 (stereo not shown) [Compound A2B1C2D1]
– | – | 94 | ≤ 5 | CC(C)CN(CC(C)C)C(=O)CON=C1C=CCCC=CCCOC(=O)c2c(O)cc(O)cc2C1 [Compound A1B1C4D19]
– | – | 79 | – | [N-]=[N+]=NCC1CC=CCCC=CC(=NOCC(=O)N2CCCCC2)Cc2c(Cl)c(O)cc(O)c2C(=O)O1 (stereo not shown) [Compound A2B1C7D1]
– | – | 70 | ≤ 0.5 | CC1CCN(C(=O)CON=C2C=CCCC=CCCOC(=O)c3c(O)cc(O)cc3C2)CC1 [Compound A1B1C4D4]
– | – | 70 | ≤ 0.5 | O=C1OCCC=CCCC=CC(=NOCC(=O)N2CCSCC2)Cc2cc(O)cc(O)c21 [Compound A1B1C4D11]
– | – | 60 | ≤ 0.1 | CC1CCCN(C(=O)CON=C2C=CCCC=CCCOC(=O)c3c(O)cc(O)cc3C2)C1 (stereo not shown) [Compound A1B1C4D3]
– | – | 57 | ≤ 1 | O=C(CON=C1C=CCCC=CCCOC(=O)c2c(O)cc(O)cc2C1)NCc1ccccc1 [Compound A1B1C4D22]
– | – | 46 | ≤ 0.5 | CC1=CC(=NOCC(=O)N2CCCCC2)Cc2cc(O)cc(O)c2C(=O)OCCC=CCC1 [Compound A1B3C4D1]
– | – | 39 | – | CC1CC=CCCC=CC(=NOCC(=O)N2CCCCC2)Cc2c(Cl)c(O)cc(O)c2C(=O)O1 (stereo not shown) [Compound A2B1C1D1]
– | – | 34 | ≤ 5 | CC1CC=CCCC=CC(=NOCC(=O)N2CCCCC2)Cc2cc(O)cc(O)c2C(=O)O1 (stereo not shown) [Compound A1B1C1D1]
– | – | 32 | – | CC1C=CCC(C)OC(=O)c2c(O)cc(O)cc2CC(=NOCC(=O)N2CCCCC2)C=CC1 (stereo not shown) [Compound A1B4C1D1]
– | – | 22 | ≤ 0.5 | O=C1OCCC=CCCC=CC(=NOCC(=O)N2CC=CCC2)Cc2cc(O)cc(O)c21 [Compound A1B1C4D9]
– | – | 21 | ≤ 0.5 | CC1C=CCCOC(=O)c2c(O)cc(O)cc2CC(=NOCC(=O)N2CCCCC2)C=CC1 (stereo not shown) [Compound A1B4C4D1]
– | – | 20 | – | CC1CC=CC(O)CC=CC(=NOCC(=O)N2CCCCC2)Cc2cc(O)cc(O)c2C(=O)O1 (stereo not shown) [Compound A1B5C1D1]
– | – | 18 | – | O=C1OCCC=CC(O)CC=CC(=NOCC(=O)N2CCCCC2)Cc2c(Cl)c(O)cc(O)c21 (stereo not shown) [Compound A2B5C4D1]
– | – | 10 | – | CC1CC=CC(O)CC=CC(=NOCC(=O)N2CCCCC2)Cc2c(Cl)c(O)cc(O)c2C(=O)O1 (stereo not shown) [Compound A2B5C1D1]
